The subject of data set [1] is FaDu cells. The data set is described as follows: Cell cycle and apoptosis analysis of FaDu cells (propidium staining, FACS). The format is cell-based, human. As to conditions: in combination with MTA. On the procedure: (§1) FaDu cells were maintained in MEM Eagle's media supplemented with 10% fetal bovine serum, 100 units/ml penicillin, 100 μg/mL streptomycin, 0.1 mM non essential amino acids and 1 mM sodium pyruvate. Cell survival was evaluated using the WST-1 assay (Kicska G A, long Li, Honig H, et al. Proc Natl Acad Sci USA 2001; 98:4593-98). Cells were seeded onto 96 well plates at a density of 10^4 cells per well, with either no additions, 1 μM compound (2), 20 μM MTA or 1 μM compound (2)+20 μM MTA, IC50 was determined following the manufacturer's protocol (Roche Applied Science, Ind.). Cells were grown and measured in triplicate or quadruplicate and the error bars show the mean±SD of the multiple samples.
FaDu cells were subjected to six days in culture using the same conditions described as for Example 4, before staining with propidium […] and FACS cell sorting analysis.

For data set [2], the system named is TRAMP (transgenic adenocarcinoma of mouse prostate) mice. Nature of the data set: Treatment of TRAMP mice (tumour mass, metastasis, MRI, histology, polyamines). As to conditions: for tumour weight upon dissection: TRAMP mouse treated with 1 mM compound. The format is in vivo. The procedure:
MRI experiments were performed using a 9.4T 21 cm bore horizontal bore magnet (Magnex Scientific) Varian INOVA MRI system (Fremont, Calif.) equipped with a 28 mm inner diameter quadrature birdcage coil. Mice were anesthetized with isoflurane inhalation anesthesia (1-1.5% in 100% O2 administered via a nose cone) and positioned in the MRI coil. Body temperature was maintained (37-38° C.) using a homeothermic warming system. After acquiring scout images, multi-slice spin-echo imaging with an echo time of 18 ms and a repetition time of 400 ms ms was performed. A 40 mm field of view with a 256×256 matrix size was used. Nine to 15 slices along the transverse, sagittal, and coronal planes were acquired in each multi-slice experiment with a slice thickness of 1 mm and the gap between slices of 0.5 mm. MRI data were processed off-line with MATLAB-based MRI analysis software.
Spent media and perchloric acid extracts of both PC3 cells and tissue samples were subjected to purification via cation exchange chromatography and dansyl-derivatized with minor changes. Disposable 10 ml BIO-RAD columns were centrifuged at 4,000 rpm for 3 minutes. Sodium carbonate used for derivatization was adjusted to pH 9.3 and the concentration of dansyl-chloride was adjusted to 100 mM. Dansyl-polyamines were quantitated by a Waters HPLC/Fluorescence system. A Phenomenex Luna 5μ C18 column was used with a mobile phase of 30% acetonitrile in a 50 mM ammonium acetate buffer at pH 6.8 (eluent A) and 100% acetonitrile (eluent B). Fluorescence detection was monitored by excitation at 338 nm and emission at 500 nm.
Long-Term: Sterile solutions of 100 μM compound (2) (pH ˜6.4). Water bottles were autoclaved prior to filling with sterile inhibitor solutions. Water consumption was monitored every other day, with fresh inhibitor solution being administered to prevent bacterial growth. Mice were control-sacrificed and tissues (genitourinary system, liver, lungs) were collected for histology and polyamine analysis. Mass and dimensions of excised genitourinary system tumours were recorded. Sections of small intestine were also removed for toxicity analysis via H&E staining.

Data set [3] relates to FaDu cells. Nature of the data set: Time dependent proliferation (WST-1) and phase contrast microscopy of FaDu cells. The format is cell-based, human. On the procedure:
as §1
FaDu cells were subjected to six days in culture using the same conditions described as for Example 4.

The subject of data set [4] is normal human fibroblast cells (GM02037). The data set is described as follows: Cytotoxicity on normal human fibroblast cells. The format is cell-based. As to conditions: GM02037 cells treated with compound and MTA for 3 weeks. The procedure: In order to determine whether the inhibition is selective for malignant cells, normal human fibroblast cells (GM02037) were also treated with compound (2) and MTA for 3 weeks. […] This selectivity is a further indication that the MTAP inhibitors described above are useful agents for the treatment of head and neck cancer.

Another data set deals with Cal27 cells. Nature of the data set: Cal27 cells grown 8 days with compound and MTA. The format is cell-based. As to conditions: 1 μM compound + 20 μM MTA, G2/M arrest and apoptosis. The procedure:
FIGS. 25A and 25B show Cal27 cells grown for 8 days as control (untreated), in the presence of 20 μM MTA, 1 μM compound (2) alone or in combination (1 μM compound (2)+20 μM MTA).

The next data set concerns PC3 cells. The data set is described as follows: Clonogenic survival assay of PC3 cells. The format is cell-based, human. As to conditions: combination treatment with MTA, approximately 2 weeks. The procedure:
• 1. 60% confluent plates of experimental cell line was taken and subjected to trypsinization • 2. Single cell suspension of the experimental cell line was made in the regular growth medium and number of cells per mililiter of suspension counted • 3. A fixed low number of cells were plated out in a volume of 3 ml of growth medium in each well of 6 well culture dishes and incubated overnight at 37° C. in a CO2 incubator • 4. Measured volumes of the inhibitor and substrate solutions in sterile deionised cell culture water was added to each well of the 6 well plates. Typically each concentration of inhibitor and/or substrate was added in triplicate wells to calculate error bars. […] At the end of the period of incubation growth medium was removed from each well, attached cells were washed once with PBS and fixed by addition of […] Formalin solution to each well and keeping at room temperature for ˜1 hour. • 7. […] Number of crystal violet stained colonies in each well containing more than 60 cells per colony was counted. • 10. Assuming each colony originated from a single surviving cell post-treatment and taking the number of colonies in the untreated control well as 1, the fraction of surviving cells in each well was calculated and plotted in a graph. […]

The test system of another data set is SCC25 cells. The data set is described as follows: Time dependent proliferation of SCC25 cells (WST-1 assay). The format is cell-based, human. As to conditions: 1 μM compound + 20 μM MTA. The procedure: as §1, with “SCC25 cells were” for “FaDu cells were”, “long Li, Hong H, et” for “long Li, Honig H, et”, “1 μM MT-compound (2), 20” for “1 μM compound (2), 20”, “(2)+20 μM MTA. IC50 was” for “(2)+20 μM MTA, IC50 was”
For orientation: Tetrazolium dyes change colour on reduction, which living cells bring about.

Setting [5] is: TRAMP mice, 100 μM in drinking water, n=12, 29 ± 7 weeks treated.

Take `CSC[C@H]1CN(Cc2c[nH]c3c(N)ncnc23)C[C@@H]1O` [compound (2)]: in the data set with FaDu cells [1], the “stopping cell cycling / apoptosis” value was “effective for stopping cell cycling”. Besides, in data set [2] (setting [5]), the “Metastatic Cancer” value came out at 8%. Besides, the “Tumor Size” value in data set [2] (setting [5]) worked out at 1.7 ± 0.8 g. Also, the prostate cancer progression result in data set [2] (TRAMP mice, alone or in combination with MTA) was “inhibited”. In data set [2] (TRAMP mice, long-term treatment), the “toxicity: intestinal crypts (H&E), hair loss, GI problems” value was “No alterations, inflammations, or irregularities were observed”. For the same compound, the “tumour weight upon dissection” value in data set [2] (dissection at 34 weeks of age (Panel E)) is on record as 0.41 g; in data set [2] (dissection at 39 weeks of age (Panel F)) it was 0.64 g. Besides, the “TRAMP liver or GUS polyamine levels” value in data set [2] (extended treatment, 100 μM in drinking water) is “no significant alterations”. In addition, the “size and incidence of preinvasive tumors, incidence of invasive cancer and metastasis” value in data set [2] (treated TRAMP mice, histology) is listed as “decreased”. Also, the cell proliferation result with FaDu cells [3] (1 μM compound + 20 μM MTA) and in the data set with SCC25 cells was “reduces cell proliferation” each time. Also, the “cell growth (phase contrast photographs)” value in the data set on FaDu cells [3] (5 days, inhibitor compound + MTA) was “effective in inhibiting cell growth”. In data set [4], the cytotoxicity entry is on record as “No cytotoxicity was observed”. Moreover, in the data set on Cal27 cells, the “number of viable Cal27 cells” value is given as “decreased”. In addition, the “effect on PC3 cells in clonogenic assay” value in the data set with PC3 cells is “cytostatic effect”.

The values above are taken from patent US8916571B2, “Methods of treating cancer using inhibitors of 5′-methylthioadenosine phosphorylase” (Albert Einstein College of Medicine of Yeshiva University, priority 2006, dated 2014).
